Measurements published in patent US20230416221A1, “DIHYDROISOQUINOLINONE AND ISOINDOLINONE DERIVATIVES AND USES THEREOF” (HEFEI INSTITUTES OF PHYSICAL SCIENCE, CHINESE ACADEMY OF …, priority 2020, published 2023).
Read-outs that look alike come from different tables or passages of the source.

Key:
[1] = system: acute myeloid leukemia cell line MOLM13; experiment: Growth of cancer cells, Cell Titer-Glo GI50, MOLM13; type: cell-based
[2] = system: acute myeloid leukemia cell line MOLM14; experiment: Growth of cancer cells, Cell Titer-Glo GI50, MOLM14; type: cell-based; conditions: read-out: GI50 MOLM 14
CDK9/CyclinT1 protein = CDK9/CyclinT1 protein (Homo sapiens (Human), UniProt P50750); experiment: Enzyme activity assay of CDK9 protein inhibition in vitro, CDK9/CyclinT1
Chain of CDK9/CyclinT1 protein (P50750 whole entry): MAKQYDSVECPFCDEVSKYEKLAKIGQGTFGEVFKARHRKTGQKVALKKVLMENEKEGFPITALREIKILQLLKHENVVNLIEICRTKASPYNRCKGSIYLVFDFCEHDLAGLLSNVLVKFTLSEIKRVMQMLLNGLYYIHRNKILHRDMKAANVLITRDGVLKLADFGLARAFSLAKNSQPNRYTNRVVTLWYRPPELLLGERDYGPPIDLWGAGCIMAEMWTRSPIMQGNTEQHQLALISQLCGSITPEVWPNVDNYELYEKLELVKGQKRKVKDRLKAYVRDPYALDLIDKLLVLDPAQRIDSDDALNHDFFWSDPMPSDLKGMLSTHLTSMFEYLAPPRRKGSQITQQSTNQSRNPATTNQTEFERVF
Chain of CDK9/CyclinT1 protein (O60563 whole entry partner): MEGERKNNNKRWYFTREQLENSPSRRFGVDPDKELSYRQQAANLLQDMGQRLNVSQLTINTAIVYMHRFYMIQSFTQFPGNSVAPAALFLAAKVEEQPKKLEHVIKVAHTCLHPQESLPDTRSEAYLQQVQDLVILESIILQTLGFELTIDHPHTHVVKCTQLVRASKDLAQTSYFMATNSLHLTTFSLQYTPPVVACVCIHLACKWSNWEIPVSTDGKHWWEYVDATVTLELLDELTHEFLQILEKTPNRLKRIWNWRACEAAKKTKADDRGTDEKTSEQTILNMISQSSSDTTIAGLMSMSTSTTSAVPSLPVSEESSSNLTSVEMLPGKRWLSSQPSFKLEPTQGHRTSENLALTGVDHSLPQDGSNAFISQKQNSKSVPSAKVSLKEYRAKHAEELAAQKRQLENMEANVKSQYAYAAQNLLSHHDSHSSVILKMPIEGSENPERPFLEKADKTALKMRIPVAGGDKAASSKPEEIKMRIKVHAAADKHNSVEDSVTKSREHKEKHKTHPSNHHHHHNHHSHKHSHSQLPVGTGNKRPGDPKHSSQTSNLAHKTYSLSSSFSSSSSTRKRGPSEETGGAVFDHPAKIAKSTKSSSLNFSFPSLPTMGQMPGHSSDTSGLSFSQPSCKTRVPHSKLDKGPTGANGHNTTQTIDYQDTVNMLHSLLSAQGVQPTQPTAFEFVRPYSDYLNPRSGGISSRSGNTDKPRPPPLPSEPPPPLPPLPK

[3] = system: human chronic myeloid leukemia cell K562; experiment: Growth of cancer cells, Cell Titer-Glo GI50, K562; type: cell-based; conditions: read-out: GI50 K562
[4] = system: MOLM13 drug resistant strain MOLM13 BR1; experiment: Growth of drug resistant strain MOLM13 BR1, Cell Titer-Glo GI50; type: cell-based; conditions: 72 hours
[5] = system: acute myeloid leukemia cell line MV4-11; experiment: Growth of cancer cells, Cell Titer-Glo GI50, MV4-11; conditions: read-out: GI50 MV4-11
[6] = system: histiocytic lymphoma U-937; experiment: Growth of cancer cells, Cell Titer-Glo GI50, U937; type: cell-based; conditions: Homo sapiens, read-out: GI50 U937
[7] = system: acute myeloid leukemia cell line OCI-AML-3; experiment: Growth of cancer cells, Cell Titer-Glo GI50, OCI-AML-3; type: cell-based; conditions: Homo sapiens, read-out: GI50 AML3
[8] = system: human ovarian granulosa tumor cell COV434; experiment: Growth of cancer cells, Cell Titer-Glo GI50, COV434; type: cell-based; conditions: Homo sapiens, COV434, 72 h, read-out: GI50 COV434
CDK9 = CDK9 (Homo sapiens (Human), UniProt P50750); experiment: Binding activity of compound and CDK9, split luciferase system (C37-CL / CDK9-NL) in HEK-293T cells; type: cell-based
Chain of CDK9 (P50750 whole entry, the tested form may be a part): as the sequence (P50750 whole entry) above
Description: The plasmid of split luciferase system was constructed by molecular cloning technology. The N-terminal domain (NLuc) and C-terminal domain (CLuc) of luciferase were respectively cloned and inserted into the vector PCDNA3 to construct NLuc-PCDNA3 and CLuc-PCDNA3 vectors, and the polyclonal sites were reserved at both ends of the sequence. Then CDC37 and CDK9 were cloned into the corresponding vectors to construct C37-CL and CDK9-NL vectors. C37-CL plasmid sequence is shown in SEQ ID NO. 1. CDK9-NL plasmid sequence is shown in SEQ ID NO. 2.
The mixed transfection complex was added to the 10 cm cell culture dish and cultured at 37° C. and 5% CO2 for 24 hours. […] After counting, the transfected cells were placed in a 96-well white Corning cell culture plate (purchased from Corning, U.S.) with 100 μL, 5000 cells/well. After 12 hours, the medium was removed from the 96-well plate and 100 μL culture medium containing corresponding concentration of the testing compound was added, which was cultured continuously for 12 hours. After 12 hours, 20 μL Luciferase-Glo (purchased from Promega, U.S.) testing reagent was added to each well. After mixing, the […] value was detected using a microplate reader.

[9] = Homo sapiens, MOLM-13, incubated for 72 hours, Cell Titer-Glo, Table 1, read-out: GI50 MOLM 13
[10] = Homo sapiens, MOLM-14, incubated for 72 hours, Cell Titer-Glo
[11] = Homo sapiens, MOLM-13, incubated for 72 hours, Cell Titer-Glo, Table 2, read-out: GI50 MOLM13
[12] = Homo sapiens, K562, incubated for 72 hours, Cell Titer-Glo
[13] = Homo sapiens, MOLM-13, BAY1251152-resistant MOLM13 strain
[14] = incubated for 72 hours, Cell Titer-Glo
[15] = Homo sapiens, MOLM-13, 72 h, read-out: GI50 MOLM 13
[16] = U-937, incubated for 72 hours, Cell Titer-Glo

| SMILES | GI50 [1, 9] | GI50 [2, 10] | IC50 (CDK9/CyclinT1 protein) | GI50 [3, 12] | GI50 ([5]; Homo sapiens, MV4-11, 72 h) | further results |
| --- | --- | --- | --- | --- | --- | --- |
| COc1ccc(Nc2nccc(-c3ccc4c(c3)C(C)(C)CNC4=O)n2)cc1CS(C)(=O)=O [Compound 45, 6-(2-((4-methoxy-3-((methylsulfonyl)methyl)phenyl)amino)pyrimidin-4-yl)-4,4-dimethyl-3,4-dihydroisoquinolin-1(2H)-one] | 0.03 µM | 0.096 µM | – | – | – | – |
| CC1(C)CNC(=O)c2ccc(-c3nc(Nc4ccc(F)c(C5(S(C)(=O)=O)CC5)c4)ncc3F)cc21 [Compound 63, 6-(5-fluoro-2-((4-fluoro-3-(1-(methylsulfonyl)cyclopropyl)phenyl)amino)pyrimidin-4-yl)-4,4-dimethyl-3,4-dihydroisoquinolin-1(2H)-one] | 0.019 µM | 0.044 µM | – | – | – | – |
| COCCN[C@H]1CC[C@H](Nc2ncc(Cl)c(-c3ccc4c(c3)C(C)(C)NC4=O)n2)CC1 [Compound 22, 5-(5-chloro-2-(((1r,4r)-4-((2-methoxyethyl)amino)cyclohexyl)amino)pyrimidin-4-yl)-3,3-dimethylisoindoline-1-one] | 0.028 µM | 0.041 µM | 0.013 µM | – | – | – |
| CN1CCN(c2cc(Nc3ncc(Cl)c(-c4ccc5c(c4)C(C)(C)CNC5=O)n3)ccc2F)CC1 [Compound 75, 6-(5-chloro-2-((4-fluoro-3-(4-methylpiperazin-1-yl)phenyl)amino)pyrimidin-4-yl)-4,4-dimethyl-3,4-dihydroisoquinolin-1(2H)-one] | 0.033 µM | 0.11 µM | – | – | – | – |
| CC1(C)CNC(=O)c2ccc(-c3ccnc(N[C@H]4CC[C@H](CC(=O)O)CC4)n3)cc21 [Compound 106] | – | – | 0.0104 µM | – | – | – |
| CN1CCN(c2cc(F)cc(Nc3ncc(F)c(-c4ccc5c(c4)C(C)(C)CNC5=O)n3)c2)CC1 [Compound 73, 6-(5-fluoro-2-((3-fluoro-5-(4-methylpiperazin-1-yl)phenyl)amino)pyrimidin-4-yl)-4,4-dimethyl-3,4-dihydroisoquinolin-1(2H)-one] | < 0.001 µM | < 0.001 µM | – | 0.026 µM | – | GI50 [1, 11]: 0.00164 µM; GI50 [4, 13]: 0.000345 µM |
| CC(=O)N[C@@H]1CCC[C@H](C(=O)Nc2cc(-c3ccc4c(c3)C(C)(C)CNC4=O)c(Cl)cn2)C1 [Compound 96, (1S,3R)-3-acetylamino-N-(5-chloro-4-(4,4-dimethyl-1-oxo-1,2,3,4-tetrahydroisoquinolin-6-yl)pyridin-2-yl)cyclohexyl-1-formamide] | – | – | – | – | – | GI50 ([1]; incubated for 72 hours, Cell Titer-Glo, Table 1, read-out: GI50 MOLM 13): 0.008 µM; GI50 [2, 14]: 0.017 µM; GI50 [3, 14]: 0.072 µM; GI50 ([4]; BAY1251152-resistant MOLM13 strain): 0.0056 µM; GI50 [5, 14]: 0.009 µM; IC50 (CDK9/CyclinT1 protein; read-out: CDK9/CyclinT1 Protein activity (IC50)): 0.00052 µM |
| CC1(C)CNC(=O)c2ccc(-c3ccnc(Nc4cccc(CS(C)(=O)=O)c4)n3)cc21 [Compound 28, 4,4-dimethyl-6-(2-((3-((methylsulfonyl)methyl)phenyl)amino)pyrimidin-4-yl)-3,4-dihydroisoquinolin-1(2H)-one] | – | – | – | – | 0.002 µM | GI50 ([6]; U-937, 72 h): 0.002 µM; GI50 ([7]; 72 h): 0.002 µM; GI50 [1, 15]: 0.001 µM; GI50 ([2]; Homo sapiens, MOLM-14, 72 h): 0.002 µM; GI50 ([3]; Homo sapiens, K562, 72 h): 0.01 µM |
| CN(C)S(=O)(=O)c1cccc(Nc2nccc(-c3ccc4c(c3)C(C)(C)CNC4=O)n2)c1 [Compound 29, 3-((4-(4,4-dimethyl-1-oxo1,2,3,4-tetrahydroisoquinolin-6-yl)pyrimidin-2-yl)amino)-N,N-dimethylbenzenesulfonamide] | 0.035 µM | 0.059 µM | 0.027 µM | 0.942 µM | 0.057 µM | GI50 [6, 16]: 0.186 µM; GI50 [7, 14]: 0.153 µM |
| CC1(C)NC(=O)c2ccc(-c3nc(Nc4ccc(F)c(CS(C)(=O)=O)c4)ncc3Cl)cc21 [Compound 51, 5-(5-chloro-2-((4-fluoro-3-((methylsulfonyl)methyl)phenyl)amino)pyrimidin-4-yl)-3,3-dimethylisoindoline-1-one] | – | 0.015 µM | – | – | – | – |
| CC(C)N1CCN(c2cc(Nc3ncc(F)c(-c4ccc5c(c4)C(C)(C)CNC5=O)n3)ccc2F)CC1 [Compound 80, 6-(5-fluoro-2-((4-fluoro-3-(4-isopropylpiperazin-1-yl)phenyl)amino)pyrimidin-4-yl)-4,4-dimethyl-3,4-dihydroisoquinolin-1(2H)-one] | 0.0033 µM | 0.0072 µM | – | 0.015 µM | – | GI50 [1, 11]: 0.0116 µM; GI50 [4, 13]: 0.0123 µM |
| CC1(C)CNC(=O)c2ccc(-c3ccnc(N[C@@H]4CCCN(S(C)(=O)=O)C4)n3)cc21 [Compound 104] | – | 0.01 µM | 0.0009 µM | – | 0.034 µM | – |
| CC1(C)CNC(=O)c2ccc(-c3ccnc(Nc4ccc(F)c(NS(C)(=O)=O)c4)n3)cc21 [Compound 34, N-(5-((4-(4,4-dimethyl-1-oxo-1,2,3,4-tetrahydroisoquinolin-6-yl)pyrimidin-2-yl)amino)-2-fluorophenyl)methanesulfamide] | 0.011 µM | – | 0.0061 µM | 0.024 µM | 0.004 µM | GI50 [6, 16]: 0.007 µM; GI50 [7, 14]: 0.008 µM; GI50 [8]: 0.009 µM; IC50 (CDK9): 0.05 µM |
| CN1CCN(c2ccc(Nc3nccc(-c4ccc5c(c4)C(C)(C)CNC5=O)n3)cc2)CC1 [Compound 40, 4,4-dimethyl-6-(2-((4-(4-methylpiperazin-1-yl)phenyl)amino)pyrimidin-4-yl)-3,4-dihydroisoquinolin-1(2H)-one] | 0.003 µM | 0.0058 µM | 0.0066 µM | 0.025 µM | 0.0017 µM | GI50 [6, 16]: 0.0046 µM; GI50 [7, 14]: 0.005 µM; GI50 [4, 13]: 0.00439 µM; IC50 (CDK9): 0.067 µM |
| CC1(C)CNC(=O)c2ccc(-c3ccnc(Nc4ccc(F)c(CS(C)(=O)=O)c4)n3)cc21 [Compound 36, 6-(2-((4-fluoro-3-((methylsulfonyl)methyl)phenyl)amino)pyrimidin-4-yl)-4,4-dimethyl-3,4-dihydroisoquinolin-1(2H)-one] | – | – | – | – | 0.003 µM | GI50 [1, 15]: < 0.001 µM; GI50 ([2]; Homo sapiens, MOLM-14, 72 h): 0.002 µM; GI50 ([3]; Homo sapiens, K562, 72 h): 0.009 µM |
| CN1CCN(c2cc(Nc3ncc(F)c(-c4ccc5c(c4)C(C)(C)CNC5=O)n3)ccc2F)CC1 [Compound 72, 6-(5-fluoro-2-((4-fluoro-3-(4-methylpiperazin-1-yl)phenyl)amino)pyrimidin-4-yl)-4,4-dimethyl-3,4-dihydroisoquinolin-1(2H)-one] | < 0.001 µM | 0.0055 µM | 0.015 µM | – | – | – |
| CC1(C)CNC(=O)c2ccc(-c3ccnc(Nc4cccc(S(C)(=N)=O)c4)n3)cc21 (stereo not shown) [Compound 38] | 0.005 µM | 0.016 µM | – | 0.095 µM | 0.013 µM | – |
| CN1CCC(NC(=O)c2cccc(Nc3nccc(-c4ccc5c(c4)C(C)(C)CNC5=O)n3)c2)CC1 [Compound 33, 3-((4-(4,4-dimethyl-1-oxo-1,2,3,4-tetrahydroisoquinolin-6-yl)pyrimidin-2-yl)amino)-N-(1-methylpiperidin-4-yl)benzamide] | 0.01 µM | – | – | 0.077 µM | 0.006 µM | GI50 [6, 16]: 0.063 µM; GI50 [7, 14]: 0.048 µM; GI50 [8]: 0.008 µM |
| CN1CCC(NC(=O)c2cc(Nc3nccc(-c4ccc5c(c4)C(C)(C)CNC5=O)n3)ccc2F)CC1 [Compound 41] | 0.011 µM | 0.025 µM | 0.0025 µM | 0.084 µM | 0.0066 µM | GI50 [6, 16]: 0.013 µM; GI50 [7, 14]: 0.023 µM; IC50 (CDK9): 0.114 µM |
| CC1(C)CNC(=O)c2ccc(-c3ccnc(NC4CCN(S(C)(=O)=O)CC4)n3)cc21 [Compound 105, 4,4-dimethyl-6-(2-((1-(methylsulfonyl)piperidin-4-yl)amino)pyrimidin-4-yl)-3,4-dihydroisoquinolin-1(2H)-one] | – | 0.043 µM | 0.015 µM | – | 0.082 µM | – |
